One series deals with uninfected McCoy cells. Briefly: Cytotoxicity of novobiocin for uninfected host cells. It counts as cell-based. As to the method: (§1) Cell culture media and reagents were purchased from Mediatech (Hearndon, Va.). Wells containing confluent monolayers of McCoy cells were infected at an approximate MOI of 0.5-1, before being centrifuged for 1 hour at 37° C. The infective inoculum was then removed and replaced with 1× Dulbecco's modified Eagle's medium (DMEM) supplemented with 10% heat-inactivated FBS, gentamicin (20 μg ml^−1) and 0.1 μg ml^−1 cycloheximide. We have previously determined that concentrations in excess of 250 μg ml^−1 are cytotoxic for uninfected McCoy cells. Novobiocin (Sigma, St. Louis, Mo.) was added at the indicated concentrations (up to 250 μg ml^−1) at 4 hours post infection. Infected cells were incubated at 37° C., 5% CO2 for a further 36 hours. Infected cells were harvested into SPG buffer (218 mM sucrose, 3.8 mM KH2PO4, 7.2 mM K2HPO4, 4.9 mM L-glutamate, pH 7.2) at 40 hours post infection, sonicated, and stored at −80° C. Bacteria were subsequently titrated by plaque assay or as inclusion forming units (IFU) using a genus-specific fluorescently tagged monoclonal antibody (Biorad, Hercules, Calif.).

The test system of another series is C. muridarum strain Nigg. Nature of the series: Effect of novobiocin treatment on replication of Chlamydiae (titration by plaque assay). Type of series: cell-based. The settings on record: novobiocin 62.5 μg ml^−1 added 4 hours post infection.
From the text: FIG. 1. Effect of novobiocin treatment on replication of C. muridarum strain Nigg. The novobiocin-treated Chlamydiae were harvested and plated by centrifugation to generate individual plaques for titration. The relative infectious yield of strain Nigg at each novobiocin concentration was derived by normalizing the total infectious yield per treated population against the yield from the untreated control. The graph is drawn from a single representative experiment with each point assayed in duplicate.
as §1, with “Infected cells were harvested into SPG buffer (218 mM sucrose, 3.8 mM KH2PO4, 7.2 mM K2HPO4, 4.9 mM L-glutamate, pH 7.2) at 40 hours post infection, sonicated, and stored at −80° C. Bacteria were subsequently titrated by plaque assay or as inclusion forming units (IFU) using a genus-specific fluorescently tagged monoclonal antibody (Biorad, Hercules, Calif.).” left out
Effect of novobiocin treatment on replication of Chlamydiae. […] The titers of novobiocin-treated bacteria were measured by plaque assays (FIG. 1). […]

The subject of a further series is plasmid. Conditions: 20 μg ml^−1 in conjunction with imipramine; cited from earlier work.
In a further series the test system is McCoy cells. Nature of the series: Iodine staining of Chlamydia-infected cells for glycogen accumulation. It counts as cell-based. The settings on record: Nigg-infected McCoy monolayers, 62.5 μg ml^−1. The source says: Iodine staining of Chlamydia-infected cells. McCoy cells cultured on glass cover slips were infected as described above. At the desired point in the infection the culture medium was removed and the monolayer rinsed several times with 1×HBSS before being fixed and stained with iodine (Schachter J & Dawson, 1978) in order to detect the presence of accumulated glycogen. Stained cells were immediately photographed using a digital camera system and SPOT version 4.0.6 software from Diagnostic Instruments Inc. (Sterling Heights, Mich.).
Plasmid-deficient C. muridarum fail to accumulate glycogen within inclusions.

`CO[C@@H]1[C@@H](OC(N)=O)[C@@H](O)[C@H](Oc2ccc3c(O)c(NC(=O)c4ccc(O)c(CC=C(C)C)c4)c(=O)oc3c2C)OC1(C)C` [novobiocin]: the “concentrations cytotoxic for uninfected McCoy cells” value in the series on uninfected McCoy cells is > 250 µg/mL. Moreover, in the series with C. muridarum strain Nigg, the “reduction of relative infectious yield of bacteria” value was “at least 100 fold”. In addition, the “effect on plasmid copy number” value with plasmid is on record as “plasmid copy number increases”. In the series on McCoy cells, the “iodine staining of inclusions under novobiocin treatment” value is recorded as “variable iodine staining of inclusions”.

These data come from US8021672B2, “Development of a Chlamydia sp. vaccine strain” (priority 2006, dated 2011).
